In brackets after ≈: the same amount, converted by molar mass. Where two headings read alike, the source gives them in different places.
What was measured:
[1] = tested on: HIV-1 N119 (Y181C mutant); experiment: microbe, parasite or virus in culture; assay type: cell-based, Human Immunodeficiency Virus type-1; details: Human immunodeficiency virus 1, MT4, read-out: EC50 N119
[2] = tested on: HIV-1 A17 (K103N + Y181C mutant); experiment: microbe, parasite or virus in culture; assay type: cell-based, Human Immunodeficiency Virus type-1; details: for EC50: Human immunodeficiency virus 1, MT4, 96 h, read-out: EC50 A17
[3] = tested on: HIV-1 EFV^R (K103R + V179D + P225H mutant); experiment: microbe, parasite or virus in culture; assay type: cell-based, Human Immunodeficiency Virus type-1; details: Human immunodeficiency virus 1, MT4, 96 h, read-out: EC50 EFV^R
[4] = tested on: HIV-1 AZT^R strain (67N, 70R, 215F, 219Q); experiment: microbe, parasite or virus in culture; assay type: cell-based, Human Immunodeficiency Virus type-1; details: for EC50: Human immunodeficiency virus 1, MT4, read-out: EC50 AZT^R
in vitro [5] = details: human
BVDV = experiment: microbe, parasite or virus in culture; assay type: cell-based, bovine viral diarrhoea virus; details: Bovine viral diarrhea virus isolates and strains, MDBK, in Bos taurus, read-out: BVDV EC50
YFV = experiment: microbe, parasite or virus in culture; assay type: cell-based; details: Yellow fever virus, BHK, read-out: YFV EC50
CV-B5 = experiment: microbe, parasite or virus in culture; assay type: cell-based, coxsackievirus B5; details: Enterovirus B, CVB5, Vero 76, read-out: CV-B5 EC50
Sb-1 = experiment: microbe, parasite or virus in culture; assay type: cell-based, poliovirus type-1; details: Enterovirus C, Vero 76, read-out: Sb-1 EC50
Reo-1 = experiment: microbe, parasite or virus in culture; assay type: cell-based, reovirus type-1; details: Reovirus sp., BHK, read-out: Reo-1 EC50
RSV = experiment: microbe, parasite or virus in culture; assay type: cell-based, human respiratory syncytial virus; details: human respiratory syncytial virus, Vero 76, read-out: RSV EC50
VSV = experiment: microbe, parasite or virus in culture; assay type: cell-based; details: Vesicular stomatitis virus, Vero 76, read-out: VSV EC50
VV = experiment: microbe, parasite or virus in culture; assay type: cell-based; details: Orthopoxvirus vaccinia, Vero 76, read-out: VV EC50
HSV-1 = experiment: microbe, parasite or virus in culture; assay type: cell-based, human herpes 1; details: Human alphaherpesvirus 1, Vero 76, read-out: HSV-1 EC50
[6] = tested on: HIV-1 MDR strain (74V, 41L, 106A, 215Y); experiment: microbe, parasite or virus in culture; assay type: cell-based, Human Immunodeficiency Virus type-1; details: for EC50: Human immunodeficiency virus 1, MT4, read-out: EC50 MDR
in vitro [7] = details: cattle (Bos taurus)
in vitro [8] = details: Syrian hamster (Mesocricetus auratus)
in vitro [9] = details: African green monkey (Cercopithecus aethiops)
HIV-1 = experiment: microbe, parasite or virus in culture
S. aureus NCTC 4163 [10] = experiment: MIC, twofold serial agar dilution; assay type: cell-based; details: Staphylococcus aureus, NCTC4163, 18 h, 35 °C, read-out: minimal inhibitory concentrations (MIC)
S. aureus ATCC 25923 [11] = experiment: MIC, twofold serial agar dilution; assay type: cell-based; details: Staphylococcus aureus, ATCC25923, 18 h, 35 °C, read-out: minimal inhibitory concentrations (MIC)
S. aureus ATCC 6538 [12] = experiment: MIC, twofold serial agar dilution; assay type: cell-based; details: Staphylococcus aureus, ATCC6538, 18 h, 35 °C, read-out: minimal inhibitory concentrations (MIC)
S. aureus ATCC 29213 [13] = experiment: MIC, twofold serial agar dilution; assay type: cell-based; details: Staphylococcus aureus, ATCC29213, 18 h, 35 °C, read-out: minimal inhibitory concentrations (MIC)
[14] = tested on: S. epidermidis ATCC 12228; experiment: MIC, twofold serial agar dilution; assay type: cell-based; details: Staphylococcus epidermidis, ATCC12228, 18 h, 35 °C, read-out: minimal inhibitory concentrations (MIC)
B. subtilis ATCC 6633 [15] = experiment: MIC, twofold serial agar dilution; assay type: cell-based; details: Bacillus subtilis, ATCC6633, 18 h, 35 °C, read-out: minimal inhibitory concentrations (MIC)
B. cereus ATCC 11778 [16] = experiment: MIC, twofold serial agar dilution; assay type: cell-based; details: Bacillus cereus, ATCC11778, 18 h, 35 °C, read-out: minimal inhibitory concentrations (MIC)
M. luteus ATCC 9341 [17] = experiment: MIC, twofold serial agar dilution; assay type: cell-based; details: Micrococcus luteus, ATCC9341, 18 h, 35 °C, read-out: minimal inhibitory concentrations (MIC)
M. luteus ATCC 10240 [18] = experiment: MIC, twofold serial agar dilution; assay type: cell-based; details: Micrococcus luteus, ATCC10240, 18 h, 35 °C, read-out: minimal inhibitory concentrations (MIC)
S. aureus NCTC 4163 [19] = experiment: disc diffusion method; assay type: cell-based, Staphylococcus aureus; details: 5 µg/9 mm disc
S. aureus ATCC 25923 [20] = experiment: disc diffusion method; assay type: cell-based, Staphylococcus aureus; details: 5 µg/9 mm disc
S. aureus ATCC 6538 [21] = experiment: disc diffusion method; assay type: cell-based, Staphylococcus aureus; details: 5 µg/9 mm disc
S. aureus ATCC 29213 [22] = experiment: disc diffusion method; assay type: cell-based, Staphylococcus aureus; details: 5 µg/9 mm disc
[23] = tested on: S. epidermidis ATCC 12228; experiment: disc diffusion method; assay type: cell-based, Staphylococcus epidermidis; details: 5 µg/9 mm disc
B. subtilis ATCC 6633 [24] = experiment: disc diffusion method; assay type: cell-based, Bacillus subtilis; details: 5 µg/9 mm disc
B. cereus ATCC 11778 [25] = experiment: disc diffusion method; assay type: cell-based, Bacillus cereus; details: 5 µg/9 mm disc
M. luteus ATCC 9341 [26] = experiment: disc diffusion method; assay type: cell-based, Micrococcus luteus; details: 5 µg/9 mm disc
M. luteus ATCC 10240 [27] = experiment: disc diffusion method; assay type: cell-based, Micrococcus luteus; details: 5 µg/9 mm disc
[28] = biological target: S. aureus topoisomerase IV (Staphylococcus aureus, UniProt P0C1S7+P0C1U9); details: at 32 µg/mL
Chain of S. aureus topoisomerase IV (P0C1U9 whole entry): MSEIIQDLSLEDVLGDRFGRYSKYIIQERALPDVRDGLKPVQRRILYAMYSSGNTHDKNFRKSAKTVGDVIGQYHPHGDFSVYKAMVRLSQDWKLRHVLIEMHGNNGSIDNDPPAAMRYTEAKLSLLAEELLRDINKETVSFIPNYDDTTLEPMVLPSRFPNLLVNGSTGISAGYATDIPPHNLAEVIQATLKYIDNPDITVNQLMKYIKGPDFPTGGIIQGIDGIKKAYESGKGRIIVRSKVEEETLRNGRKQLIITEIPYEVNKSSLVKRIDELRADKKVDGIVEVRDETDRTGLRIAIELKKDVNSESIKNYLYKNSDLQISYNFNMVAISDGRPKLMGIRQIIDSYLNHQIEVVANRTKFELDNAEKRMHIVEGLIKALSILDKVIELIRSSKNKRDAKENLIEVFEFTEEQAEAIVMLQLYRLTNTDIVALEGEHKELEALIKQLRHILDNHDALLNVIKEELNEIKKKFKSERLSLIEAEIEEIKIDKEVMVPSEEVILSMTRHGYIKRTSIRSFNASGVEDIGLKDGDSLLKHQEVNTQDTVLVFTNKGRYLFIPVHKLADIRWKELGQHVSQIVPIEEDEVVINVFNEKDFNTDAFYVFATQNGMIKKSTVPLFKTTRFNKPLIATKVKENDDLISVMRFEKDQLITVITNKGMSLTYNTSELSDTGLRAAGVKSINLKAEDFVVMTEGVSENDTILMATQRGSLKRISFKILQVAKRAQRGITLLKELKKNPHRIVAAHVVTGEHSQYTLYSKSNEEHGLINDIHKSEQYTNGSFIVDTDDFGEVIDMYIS
Chain of S. aureus topoisomerase IV (P0C1S7 whole entry): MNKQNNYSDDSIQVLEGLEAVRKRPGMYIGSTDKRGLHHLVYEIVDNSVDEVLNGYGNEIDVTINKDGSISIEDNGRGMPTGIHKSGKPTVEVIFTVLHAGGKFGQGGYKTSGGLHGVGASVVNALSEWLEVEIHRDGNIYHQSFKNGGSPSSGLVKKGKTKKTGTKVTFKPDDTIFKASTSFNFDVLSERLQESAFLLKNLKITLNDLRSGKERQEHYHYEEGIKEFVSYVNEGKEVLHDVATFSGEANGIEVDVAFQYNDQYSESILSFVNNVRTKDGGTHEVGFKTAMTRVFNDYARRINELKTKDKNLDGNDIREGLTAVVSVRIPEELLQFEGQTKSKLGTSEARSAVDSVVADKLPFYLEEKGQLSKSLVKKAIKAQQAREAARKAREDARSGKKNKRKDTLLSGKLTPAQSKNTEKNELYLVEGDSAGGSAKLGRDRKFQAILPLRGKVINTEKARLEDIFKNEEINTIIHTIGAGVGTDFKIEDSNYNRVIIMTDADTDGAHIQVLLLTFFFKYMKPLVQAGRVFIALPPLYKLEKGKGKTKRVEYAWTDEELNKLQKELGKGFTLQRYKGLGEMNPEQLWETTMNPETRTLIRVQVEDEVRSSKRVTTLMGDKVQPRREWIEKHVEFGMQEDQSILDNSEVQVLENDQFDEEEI

[29] = tested on: hospital methicillin-susceptible strains of S. aureus (MSSA); experiment: MIC against hospital strains; details: Staphylococcus aureus
[30] = tested on: methicillin-resistant strains of S. aureus (MRSA); experiment: MIC against hospital strains; details: Staphylococcus aureus
S. epidermidis (MRSE) = experiment: MIC against hospital strains; details: Staphylococcus epidermidis
[31] = Human immunodeficiency virus 1, MT4, read-out: EC50 HIV-1

O=C1Nc2ccc(Cl)cc2[C@@](C#CC2CC2)(C(F)(F)F)O1 [Efavirenz]
EC50 [1]: 0.018 ± 0.002 µM | EC50 [2]: 0.075 ± 0.009 µM | EC50 [3]: 7 ± 0.8 µM | EC50 [4]: 0.001 ± 0.0002 µM | CC50 (in vitro [5]): 40 µM

S=C(NCCc1c[nH]c2ccccc12)Nc1ccc(Br)cc1 [Compound 8, 1-(2-(1H-Indol-3-yl)ethyl)-3-(4-bromophenyl)thiourea]
EC50 (BVDV): > 52 µM | EC50 (YFV): > 10 µM | EC50 (CV-B5): > 13 µM | EC50 (Sb-1): > 13 µM | EC50 (Reo-1): > 10 µM | EC50 (RSV): > 13 µM | EC50 (VSV): > 13 µM | EC50 (VV): > 13 µM | EC50 (HSV-1): > 13 µM | EC50 [1]: > 45 µM | activity against A17 strain compared with wild type (in words) [2]: comparable with those of HIV-1 wild-type | EC50 [2]: 12 ± 1.5 µM | EC50 [3]: > 45 µM | activity against AZT^R strain compared with wild type (in words) [4]: comparable with those of HIV-1 wild-type | EC50 [4]: 9 ± 1 µM | activity against MDR strain compared with wild type (in words) [6]: comparable with those of HIV-1 wild-type | EC50 [6]: 9 ± 0.8 µM | melting point: 156 to 158 °C | CC50 (in vitro [5]): 45 µM | CC50 (in vitro [7]): 52 µM | CC50 (in vitro [8]): 10 µM | CC50 (in vitro [9]): 13 µM | EC50 (HIV-1; [31]): 8.7 ± 0.8 µM | EC50 (HIV-1; Human immunodeficiency virus 1, MT4, read-out: HIV-1 EC50): 8.7 ± 0.4 µM

O=C(O)c1cn(C2CC2)c2cc(N3CCNCC3)c(F)cc2c1=O [Ciprofloxacin, reference compound]
MIC (S. aureus NCTC 4163 [10]): 0.25 µg/mL (≈ 0.754 µM) | MIC (S. aureus ATCC 25923 [11]): 0.5 µg/mL (≈ 1.51 µM) | MIC (S. aureus ATCC 6538 [12]): 0.25 µg/mL (≈ 0.754 µM) | MIC (S. aureus ATCC 29213 [13]): 0.5 µg/mL (≈ 1.51 µM) | MIC [14]: 0.25 µg/mL (≈ 0.754 µM) | MIC (B. subtilis ATCC 6633 [15]): < 0.12 µg/mL | MIC (B. cereus ATCC 11778 [16]): 0.25 µg/mL (≈ 0.754 µM) | MIC (M. luteus ATCC 9341 [17]): 0.25 µg/mL (≈ 0.754 µM) | MIC (M. luteus ATCC 10240 [18]): 1 µg/mL (≈ 3.02 µM) | diameter of growth inhibitory zone (GIZ) (S. aureus NCTC 4163 [19]): 26 mm | diameter of growth inhibitory zone (GIZ) (S. aureus ATCC 25923 [20]): 26 mm | diameter of growth inhibitory zone (GIZ) (S. aureus ATCC 6538 [21]): 28 mm | diameter of growth inhibitory zone (GIZ) (S. aureus ATCC 29213 [22]): 22 mm | diameter of growth inhibitory zone (GIZ) [23]: 30 mm | diameter of growth inhibitory zone (GIZ) (B. subtilis ATCC 6633 [24]): 38 mm | diameter of growth inhibitory zone (GIZ) (B. cereus ATCC 11778 [25]): 26 mm | diameter of growth inhibitory zone (GIZ) (M. luteus ATCC 9341 [26]): 26 mm | diameter of growth inhibitory zone (GIZ) (M. luteus ATCC 10240 [27]): 25 mm | inhibition of decatenation activity of S. aureus topoisomerase IV [28]: almost completely inhibited | MIC ([29]; hospital S. aureus MSSA strain 440/11): 0.4 µg/mL (≈ 1.21 µM) | MIC ([29]; hospital S. aureus MSSA strain 441/11): 0.4 µg/mL (≈ 1.21 µM) | MIC ([29]; hospital S. aureus MSSA strain 442/11): 0.4 µg/mL (≈ 1.21 µM) | MIC ([29]; hospital S. aureus MSSA strain 443/11): 0.4 µg/mL (≈ 1.21 µM) | MIC ([29]; hospital S. aureus MSSA strain 444/11): 0.8 µg/mL (≈ 2.41 µM) | MIC ([29]; hospital S. aureus MSSA strain 445/11): 0.4 µg/mL (≈ 1.21 µM) | MIC ([29]; hospital S. aureus MSSA strain 446/11): 0.4 µg/mL (≈ 1.21 µM) | MIC ([29]; hospital S. aureus MSSA strain 447/11): 0.8 µg/mL (≈ 2.41 µM) | MIC ([29]; hospital S. aureus MSSA strain 448/11): 0.8 µg/mL (≈ 2.41 µM) | MIC ([29]; hospital S. aureus MSSA strain 449/11): 0.4 µg/mL (≈ 1.21 µM) | MIC ([30]; hospital S. aureus MRSA strain 389/10): 25 µg/mL (≈ 75.4 µM) | MIC ([30]; hospital S. aureus MRSA strain 390/10): 100 µg/mL (≈ 302 µM) | MIC ([30]; hospital S. aureus MRSA strain 391/10): 100 µg/mL (≈ 302 µM) | MIC ([30]; hospital S. aureus MRSA strain 392/10): 100 µg/mL (≈ 302 µM) | MIC ([30]; hospital S. aureus MRSA strain 393/10): 50 µg/mL (≈ 151 µM) | MIC ([30]; hospital S. aureus MRSA strain 394/10): 25 µg/mL (≈ 75.4 µM) | MIC ([30]; hospital S. aureus MRSA strain 399/10): 200 µg/mL (≈ 604 µM) | MIC ([30]; hospital S. aureus MRSA strain 450/11): 100 µg/mL (≈ 302 µM) | MIC ([30]; hospital S. aureus MRSA strain 451/11): 100 µg/mL (≈ 302 µM) | MIC ([30]; hospital S. aureus MRSA strain 452/11): 200 µg/mL (≈ 604 µM) | MIC (S. epidermidis (MRSE)): 6.25 µg/mL (≈ 18.9 µM) | MIC (S. epidermidis (MRSE); hospital S. epidermidis MRSE strain 430/11): 0.8 µg/mL (≈ 2.41 µM) | MIC (S. epidermidis (MRSE); hospital S. epidermidis MRSE strain 432/11): 50 µg/mL (≈ 151 µM) | MIC (S. epidermidis (MRSE); hospital S. epidermidis MRSE strain 433/11): 50 µg/mL (≈ 151 µM) | MIC (S. epidermidis (MRSE); hospital S. epidermidis MRSE strain 434/11): 50 µg/mL (≈ 151 µM) | MIC (S. epidermidis (MRSE); hospital S. epidermidis MRSE strain 435/11): 0.4 µg/mL (≈ 1.21 µM) | MIC (S. epidermidis (MRSE); hospital S. epidermidis MRSE strain 436/11): 0.4 µg/mL (≈ 1.21 µM) | MIC (S. epidermidis (MRSE); hospital S. epidermidis MRSE strain 437/11): 0.8 µg/mL (≈ 2.41 µM) | MIC (S. epidermidis (MRSE); hospital S. epidermidis MRSE strain 438/11): 0.4 µg/mL (≈ 1.21 µM) | MIC (S. epidermidis (MRSE); hospital S. epidermidis MRSE strain 439/11): 50 µg/mL (≈ 151 µM)

Cc1ccnc2c1NC(=O)c1cccnc1N2C1CC1 [Nevirapine]
EC50 [1]: 6.3 ± 0.05 µM | EC50 [2]: 80 µM | EC50 [3]: 100 µM | EC50 [4]: 0.078 ± 0.008 µM | EC50 [6]: 5 ± 0.6 µM | CC50 (in vitro [5]): > 100 µM | EC50 (HIV-1; [31]): 0.08 ± 0.005 µM

Reference: PMC6222422, “Synthesis and Biological Evaluation of Novel Indole-Derived Thioureas” (Molecules : A Journal of Synthetic Chemistry and Natural …, 2018)
